Reference: BindingDB's records for doi:10.1016/j.bmcl.2017.10.036 (Williams College, 2017)

Target: T1, Histidine kinase (Caulobacter vibrioides, UniProt Q9X688)
T1 sequence (Q9X688 whole entry): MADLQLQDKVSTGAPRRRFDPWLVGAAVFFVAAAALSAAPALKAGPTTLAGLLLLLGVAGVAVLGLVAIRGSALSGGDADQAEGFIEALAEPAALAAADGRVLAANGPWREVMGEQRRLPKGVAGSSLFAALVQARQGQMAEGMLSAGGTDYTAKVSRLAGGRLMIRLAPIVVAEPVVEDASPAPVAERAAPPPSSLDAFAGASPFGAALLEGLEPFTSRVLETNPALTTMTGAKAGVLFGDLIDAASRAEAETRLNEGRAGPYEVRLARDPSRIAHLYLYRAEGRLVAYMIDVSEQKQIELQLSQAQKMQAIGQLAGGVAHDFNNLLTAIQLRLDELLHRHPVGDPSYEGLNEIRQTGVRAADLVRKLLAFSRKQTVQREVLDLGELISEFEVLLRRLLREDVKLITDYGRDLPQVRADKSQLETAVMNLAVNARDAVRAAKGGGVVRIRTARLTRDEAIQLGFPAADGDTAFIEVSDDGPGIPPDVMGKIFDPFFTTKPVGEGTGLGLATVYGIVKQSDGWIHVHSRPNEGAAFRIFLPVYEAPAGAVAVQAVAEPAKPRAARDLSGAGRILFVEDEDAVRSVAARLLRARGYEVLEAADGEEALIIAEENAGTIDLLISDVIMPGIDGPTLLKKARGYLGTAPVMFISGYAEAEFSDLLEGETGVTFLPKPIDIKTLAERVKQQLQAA
Assay: Inhibition of recombinant Caulobacter vibrioides cell cycle histidine kinase CckA deltaTM mutant DHp domain (70 to 691 residues) expressed in Escherichia coli in presence of varying levels of ATP measured every 60 secs for 2 hrs by PK/LDH enzyme coupled assay

In order of rising IC50:
1. CCNC(=O)c1noc(-c2cc(C(C)C)c(O)cc2O)c1-c1ccc(CN2CCOCC2)cc1 [5-[2,4-dihydroxy-5-(propan-2-yl)phenyl]-N-ethyl-4-[4-(morpholin-4-ylmethyl)phenyl]-1,2-oxazole-3-carboxamide]  7.3 µM
2. Cc1[nH]nc(-c2cc(Cl)c(O)cc2O)c1-c1ccc2c(c1)OCCO2 [4-chloro-6-[4-(2,3-dihydro-1,4-benzodioxin-6-yl)-5-methyl-1H-pyrazol-3-yl]benzene-1,3-diol]  11.2 µM
3. COc1ccc(-c2c(-c3cc(Cl)c(O)cc3O)n[nH]c2C)cc1  12.3 µM
4. CCc1cc(-c2n[nH]c(C)c2-c2ccc3c(c2)OCCO3)c(O)cc1O  28 µM
5. Oc1cc(O)c(-c2n[nH]cc2-c2ccc3c(c2)OCCO3)cc1Cl  32.3 µM
